Measured values taken from US7303921B2, “Method to assay coenzyme Q10 in blood plasma or blood serum” (priority 2002, dated 2007).
Several values for one entry are separate records, joined by “and”; a condition that tells them apart may be missing. Equal entries are not always repeated.

Key:
[1] = Stability of the n-propanol extract (supernatant) of plasma CoQ10; assay type: physicochemical
Protocol: (§1) Description of the Analysis. 200 μl of a blood plasma sample were supplemented with 50 μl of a 1,4 benzoquinone solution (2 mg/ml) in a test tube and vortexed for 10 seconds. After 10 minutes, 1 ml of n-propanol was added. The test tube was vortexed for 10 seconds and centrifuged at 10,000 rpm for 2 minutes in order to spin down the protein precipitate. 200 μl of the supernatant were injected into the HPLC. […] Mobile phase was constituted by ethanol-methanol (65%-35%) and the flux was 1 ml/min. UV detection was performed at 275 nm.
For practical reasons the propanol extract can be kept in the refrigerator up to 3 days before injection into the HPLC. Several samples were checked by analysing them 1 hour, 1, 2 and 4 days after drawing the blood, keeping the samples at −20° C., 0-4° C., or +22° C. (room temperature) and the results, as far as total CoQ10 was concerned, were the same for the same sample whether kept at different temperatures or for different lengths of time (presumably only the reduced/oxidised CoQ10 ratio changed). There was no need to add any stabilizing agent to the sample.

[2] = Stability of total CoQ10 in plasma at different storage conditions and times; assay type: physicochemical, human
Protocol: In order to check the stability of total CoQ10 in plasma, aliquots of 3 different samples were kept for 3 days at 4° C., room temperature (22° C.) and at −20° C. respectively.
as §1

stability of supernatant (propanol extract) ([1]; capped test tube, kept at 22° C.): stable for up to three days | time the propanol extract can be kept before injection into the HPLC ([1]; in the refrigerator): up to 3 days | Mean total CoQ10 ([2]; 0-4° C., 72 h, plasma samples A, B, C): 1.82 µM and 1.11 µM | total CoQ10 result after storage of samples ([2]; 1 hour, 1, 2 and 4 days after drawing the blood, −20° C., 0-4° C. or +22° C., no stabilizing agent): the same
SMILES: COC1=C(OC)C(=O)C(C/C=C(\C)CC/C=C(\C)CC/C=C(\C)CC/C=C(\C)CC/C=C(\C)CC/C=C(\C)CC/C=C(\C)CC/C=C(\C)CC/C=C(\C)CCC=C(C)C)=C(C)C1=O [CoQ10]
stability of total CoQ10 in plasma ([2]; even when kept at room temperature): practically stable for at least three days
